“And” between values parts separate entries of the source, which are not always exact repeats. Equal entries are not always repeated. “Also recorded” adds a separate entry of the source.
Tests used:
Type in all cases: in vivo, mouse
[1] = system: C57Bl/6J mice; experiment: Western diet model: biochemical findings and liver and body weights; settings: for GSH / TBARS: liver; for ALT / AST / Adiponectin / Cholesterol / Glucose / Insulin / Leptin / Triglycerides: serum
Experimental: SR141716 was a kind gift from Sanofi-Aventis, France. SR141716 was dissolved in water with 0.1% Tween and given daily by gavage for 10 weeks. D-4F is an 18-mer of D-amino acids (Ac-D-W-F-K-A-F-Y-D-K-V-A-E-K-F-K-E-A-F-NH2)^4 (SEQ ID NO: 1) that was commercially synthesized (A & A Laboratories, San Diego Calif.) with 80% purity. D-4F was dissolved in the drinking water at a concentration of 60 μg/ml water for a calculated dose corrected for drug purity of 125 μg D-4F/mouse/day.
The high fat diet used was the RD “Western diet” (Research Diets, D12079B), which contains 41% of calories from fat, 43% calories from carbohydrate, and 17% of calories from protein); this diet was designed to approximate the “typical” human diet of North America and Europe.
(§1) Studies were performed in male C5713L/6J mice (Jackson Laboratories, Bar Harbor Me.). Six groups were studied (n=3-5, see FIG. 1) with 4 mice per group at the outset, except for group 2, which was started with n=5; 1 mouse died in group 1. Groups 1, 2, and 3 received the Western diet for 9.5 months; during the last 2.5 months of the 9.5 months, group 2 received SR141716 10 mg/kg/day i.g., and group 3 received D-4F, 125 μg/mouse/day, in the drinking water. Groups 4, 5, and 6 received the Western diet for 7 months followed by standard chow for 2.5 months; during the 2.5 months on standard chow, group 5 received SR141716 and group 6 received D-4F as described for groups 2 and 3, respectively. Additional control groups were studied: 6-month old C57Bl/6J mice as age-matched controls (n=5) and C57Bl/6J mice that received the Western diet for 6 months (n=6).
Serum aspartate amino transferase (AST) and alanine aminotransferase (ALT) were measured with the Infinity AST and ALT liquid assay reagent (Thermo Electron Corporation, Louisville Colo., cat #TR70121 and TR71121). Serum triglycerides and cholesterol were measured with the Infinity cholesterol assay reagent (Thermo Electron Corporation, Louisville Colo., cat #TR22321 and TR13315). Serum glucose was measured with the Glucose (HK) assay kit (Sigma, St. Louis, Mo., cat #GAHK-20). Serum insulin was measured with the Mercodia Ultrasensitive mouse insulin ELISA kit (ALPCO Diagnostics, Salem N.H., cat #10 1150-01). The homeostasis model assessment insulin resistance index (HOMA-IR) was calculated as [fasting glucose (mmol/liter)*fasting insulin (microunits/ml)]/22.5^17, 18. Serum leptin was measured with the TiterZyme EIA mouse leptin kit (Assay Designs Inc, Ann Arbor Mich., cat #900-019). Serum adiponectin was measured with the mouse adiponectin kit (Biovendor LLC, Candler N.C., cat #RD 293023100). Thiobarbituric acid reactive substance (TBARS) was measured as previously described^19, 20; in brief, liver was homogenized and diluted 1:1 in 10% ice cold trichloroacetic acid. 0.5 ml supernatant or of a standard solution of 1,1,3,3-tetraethoxypropane was mixed with 0.5 ml of 0.6% (w/v) 4,6-dihydroxy-2-thiopyrimidine. The solution was boiled for 30 min, cooled and centrifuged. Absorbance was measured at 532 nm with a Shimadzu TV-2101 PC spectrophotometer. To measure hepatic glutathione (GSH), liver was homogenized and diluted 1:1 in 10% ice cold trichloroacetic acid. GSH in the supernatant was measured according to the recycling assay of Tietze^21.

[2] = system: C57Bl/6J mice; experiment: Western diet model: liver histology, assessment of steatosis and inflammation; settings: for Fatty Change Degree of fat / Fatty Change Type (predominant type) / Inflammatory Clusters: individual mice
Experimental: as §1
The slides were coded, without the pathologist knowing the specific treatment group that the slides represented. The histology was graded according to a number of histologic features. The degree of fat was graded as to the approximate percentage of hepatocytes containing fat: 0, absent; +/−, less than 5%; 1+, 5-25%; 2+. 26-50%; 3+, 51-75%; 4+, >75%. The fat was also assessed as to whether it was totally macrovesicular, predominantly macrovesicular, totally microvesicular, predominantly microvesicular, or mixed macro- and microvesicular. In addition, the zone was assessed as to whether the fat was perivenular, periportal, diffuse, or focal. Inflammation was graded as absent, scanty (1 to 3 foci/slide), present (scattered, with 4 to 10 foci/slide), present + (scattered, >10 foci/slide but not numerous), and present ++ (numerous). The type of inflammation was graded as totally mononuclear, predominantly mononuclear, totally neutrophilic, predominantly neutrophilic, and mixed mononuclear-neutrophilic. The hydropic change of hepatocytes was graded as absent, mild, and moderate/severe, with the location noted as perivenular, focal or diffuse.

[3] = system: C57Bl/6J mice; experiment: Western diet model: fibrosis by Sirius red whole-section-scanning morphometric image analysis; settings: summary statement
Experimental: as §1
Sirius red staining was performed by the Morphology core of the USC-UCLA Research Center for Alcoholic Liver and Pancreatic Diseases. α-Smooth muscle actin.
Tissue sections stained with Sirius red were scanned by a third-generation Automated Cellular Imaging System (ACIS III), a highly automated microscope-based digital imaging system (Carl Zeiss MicroImaging AIS Inc., Aliso Viejo Calif.). The color of the Sirius red staining in the digitized tissue sections was determined and applied to a pre-existing algorithm that provides the area of a target color in μm^2. The outline of each digitized tissue section was manually traced using the computer's mouse. Areas of large portal tracts and central veins were also outlined manually. The total area (μm^2) of each tissue section and of the total area of large portal tracts and central veins were determined by the image analysis system. The area of fibrosis was calculated as [total area stained by Sirius red minus perivascular staining] as a percentage of the size of the tissue section. This method has the advantage of scanning the entire section, rather than measuring fibrosis in randomly chosen fields.

[4] = 7 months Western diet followed by 2.5 months Western diet + drug
[5] = 7 months Western diet followed by 2.5 months chow + drug

Compound: Cc1c(C(=O)NN2CCCCC2)nn(-c2ccc(Cl)cc2Cl)c1-c1ccc(Cl)cc1 [SR141716, reference compound]
- Body weight [1, 4]: 29.1 ± 2.0 g
- HOMA-IR [1, 4]: 8.8 ± 3.6
- Liver weight [1, 4]: 1.54 ± 0.1 g
- Body weight [1, 5]: 30.2 ± 1.1 g
- HOMA-IR [1, 5]: 6.1 ± 2.0
- Liver weight [1, 5]: 1.39 ± 0.1 g
- GSH [1, 4]: 68.7 ± 2.0 nmole/mg protein
- TBARS [1, 4]: 17.1 ± 0.7 nmol/g tissue
- GSH [1, 5]: 73.8 ± 2.2 nmole/mg protein
- TBARS [1, 5]: 18.7 ± 1.09 nmol/g tissue
- ALT [1, 4]: 54.8 ± 12.4 U/L
- AST [1, 4]: 109.6 ± 10.4 U/L
- Adiponectin [1, 4]: 18.4 ± 1.8 µg/mL
- Cholesterol [1, 4]: 112.2 ± 13.7 mg/dL
- Glucose [1, 4]: 136.3 ± 29.2 mg/dL
- Insulin [1, 4]: 0.81 ± 0.15 ng/mL
- Leptin [1, 4]: 2.36 ± 1.05 ng/mL
- Triglycerides [1, 4]: 33.1 ± 2.2 mg/dL
- ALT [1, 5]: 59.1 ± 11.4 U/L
- AST [1, 5]: 69.1 ± 5.5 U/L
- Adiponectin [1, 5]: 16.5 ± 2.0 µg/mL
- Cholesterol [1, 5]: 105.3 ± 4.7 mg/dL
- Glucose [1, 5]: 96.2 ± 3.0 mg/dL
- Insulin [1, 5]: 0.89 ± 0.27 ng/mL
- Leptin [1, 5]: 1.95 ± 0.72 ng/mL
- Triglycerides [1, 5]: 47.0 ± 2.2 mg/dL
- body weight (summary) ([1]; summary statement): promoted weight loss
- insulin resistance (summary) ([1]; summary statement): decreased insulin resistance
- leptin levels (summary) ([1]; summary statement): decreased leptin levels
- Fatty Change Degree of fat [2, 4]: 4 (2×) and 3 and 1
- Fatty Change Type (predominant type) [2, 4]: Microvesicular; also recorded: Mixed; also recorded: Macrovesicular
- Inflammatory Clusters [2, 4]: 1 and 2 (4×)
- Fatty Change Degree of fat [2, 5]: 3 (2×) and 2 and 1
- Fatty Change Type (predominant type) [2, 5]: Microvesicular
- Inflammatory Clusters [2, 5]: 2 (3×) and 1
- steatohepatitis (summary) ([2]; summary statement): improved steatohepatitis
- progression of fibrosis after onset of steatohepatitis [3]: prevented progression of fibrosis
